Where two headings read alike, the source gives them in different places.
Legend:
[1] = Turbidity, derived count rate of scattered light; assay type: physicochemical; conditions: for Count Rate: derived count rate of scattered light (turbidity); for Log10 Count Rate: turbidity, derived count rate of scattered light, data of Figure 2D
[2] = assay type: physicochemical; parameters: key to Fibril / Fibril Formation / TEM 2cat / Fibril: 1 = fibrils present; 0 non-fibrillar structures; conditions: for Fibril / Fibril Formation: 1 mg/mL, uranyl acetate stain, qualitative
[3] = system: HIV-1 infection of TZM-bl cells; experiment: HIV-1 infectivity enhancement assay, β-galactosidase luminescence; assay type: cell-based; conditions: for Rel-EFC: infection relative to EF-C (QCKIKQIINMWQ = 1); for Log10 Infection Rel EFC: log10 of infection relative to EF-C; for Log Infectivity: Log10 infection relative to EF-C, TZM-bl cells, asymmetric std dev errors; for Log10 Infection Rel EF-C: HIV-1 infection of TZM-bl cells; for Log10 of Rel to EFC (Feb2021): Log10 of infection relative to EF-C; for Abs. Inf.: absolute infection signal, HIV-1 on TZM-bl cells, β-galactosidase luminescence; for Log10 Inf. rel. to EF-C: log10 of HIV-1 infection of TZM-bl cells relative to EF-C (EF-C = 0)
[4] = Zeta-potential measurement; assay type: physicochemical
How it was run: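 One-day room-temperature aggregation at 1 mg/mL in PBS (pH 7.4) preceded measurement; samples then went into 1 mM KCl. Triplicates per sample, two independent experiments averaged.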

[5] = TEM, 1 = fibrils present, 0 = non-fibrillar
[6] = TEM, 1 = fibrils present, 0 = non-fibrillar structures
[7] = category: fibrils present or non-fibrillar
[8] = Fig. S7 panel A (plotted against β-sheet content)
[9] = Fig. S7 panel B (plotted against CR), rounded to two decimals
[10] = Log10 of infection rate relative to EF-C, Figure 3A source data
[11] = infection rate relative to EF-C, log10, data of Figure 2D
[12] = infection rate relative to EF-C, log10, source data of Figure 2C
[13] = zeta-potential of peptide, source data of Figure 2C
[14] = zeta-potential of the peptide assemblies, mean, Figure 3A source data
[15] = FigS12 panel A, fibril category by TEM
[16] = zeta potential of peptide assemblies

| Substance | Count Rate [1] | Log10 Count Rate [1] | TEM 2cat ([2]; Fig S10 panel D) | Fibril ([2]; Fig S10 panel E) | Fibril / Fibril Formation ([2]; TEM) | Fibril [2, 5] | Fibril [2, 6] | TEM 2cat [2, 7] | Rel-EFC ([3]; 1.3 µM peptide) | Log10 Infection Rel EFC ([3]; 1.3 µM peptide) | Log Infectivity [3, 8] | Log10 Infection Rel EF-C [3, 10] | Log10 Infection Rel EF-C [3, 11] | Log10 Infection Rel EF-C [3, 12] | Log10 of Rel to EFC (Feb2021) ([3]; all peptides of FigS16) | Abs. Inf. [3] | Log10 Inf. rel. to EF-C [3] | Zeta-Pot. [4] | Zeta-Potential / mV [4, 13] [mV] | Zeta-Potential / mV [4, 14] [mV] | other results |
| --- | --- | --- | --- | --- | --- | --- | --- | --- | --- | --- | --- | --- | --- | --- | --- | --- | --- | --- | --- | --- | --- |
| KIKQIINMWQ | 615.5 | 2.789 | 1 | 1 | 1 | 1 | 1 | 1 | 0,35 | -0,46 | -0.4604 | -0.46 | -0.4604 | -0.4604 | -0.46 | 9363 | -0.4604 | 15.37 | 16.2 | 15.37 | Log Infectivity [3, 9]: -0.46 |
| QCKIKQIINM | 20551.06667 | 4.313 | 1 |  | 1 | 1 | 1 | 1 | 0,35 | -0,46 | -0.4555 | -0.46 | -0.4555 | -0.4555 | -0.46 | 11186.66667 | -0.4555 | 10.4 | 9.992 | 10.4 |  |
| RGDKIRGDKI | 285.8 | 2.456 | 0 | 0 | 0 | 0 | 0 |  | 0,01 | -2,13 | -2.126 | -2.13 | -2.126 | -2.126 |  | 163.3 | -2.126 | -13.57 | -7.422 | -13.57 | TEM 2cat [2, 15]: 0; Fibril ([2]; FigS12 panel B, TEM): 0; Log Infectivity [3, 9]: -2.13 |
| CKIKIQIII | 4953 | 3.695 | 1 |  | 1 | 1 | 1 | 1 | 0,98 | -0,01 | -0.01045 | -0.01 | -0.01045 | -0.01045 | -0.01 | 22150 | -0.01045 | 16.2 | 16.2 | 16.2 | n-fold Infection, 1.3 µM ([3]; 1.3 µM peptide, n-fold infection): 41 n-fold |
| NMWQKIKQII | 982.4 | 2.992 | 0 |  | 0 | 0 | 0 |  | 0,03 | -1,6 | -1.5971 | -1.6 | -1.5971 | -1.5971 |  | 283.3 | -1.5971 | -0.213 | 2.325 | -0.21 | TEM 2cat [2, 15]: 0; Fibril ([2]; FigS12 panel B, TEM): 0 |
| CEFEFQF | 367.4 | 2.565 | 1 |  | 1 | 1 | 1 |  | 0,01 | -2,28 | -2.283 | -2.28 | -2.283 | -2.283 |  |  |  |  | -10.825 | -13.7 | TEM 2cat [2, 15]: 1; Fibril ([2]; FigS12 panel B, TEM): 1; Zeta-Pot. [4, 16]: -13.7 |
| CRFRFQF | 390.5 | 2.592 | 1 | 1 | 1 | 1 | 1 | 1 | 0,34 | -0,46 | -0.4635 | -0.46 | -0.4635 | -0.4635 | -0.46 | 7508 | -0.4635 | -2.097 | 6.218 | -2.1 | Log Infectivity [3, 9]: -0.46 |
| CKFKFQFNMWQ | 142.5 | 2.154 | 1 | 1 | 1 | 1 | 1 | 1 | 1,16 | 0,06 | 0.06446 | 0.06 | 0.06446 | 0.06446 | 0.06 | 26320 | 0.06446 | 17.03 | 15.58 | 17.03 | Log Infectivity [3, 9]: 0.06 |
| KAKAQANMWQ | 56.17 | 1.749 | 0 | 0 | 0 | 0 | 0 |  | 0,01 | -2,15 | -2.146 | -2.15 | -2.146 | -2.146 |  | 193.3 | -2.146 | -19.63 | -14.675 | -19.63 | TEM 2cat [2, 15]: 0; Fibril ([2]; FigS12 panel B, TEM): 0; Log Infectivity [3, 9]: -2.15; Inf. rel. EF-C ([3]; HIV-1 infection relative to EF-C, Fig 23 plot, panels A and B, mean of 3 values): 0.008469; Inf. rel. EF-C ([3]; HIV-1 infection relative to EF-C, Fig 23 plot, single data point, replicate 1): 0.01122; Inf. rel. EF-C ([3]; HIV-1 infection relative to EF-C, Fig 23 plot, single data point, replicate 2): 0.003015; Inf. rel. EF-C ([3]; HIV-1 infection relative to EF-C, Fig 23 plot, single data point, replicate 3): 0.01117; Abs. Inf. / RLU s-1 ([3]; absolute infection rate, peptide 1.3 µM on cells, virus preincubated 10 min with fibrils, read 3 days post infection, mean of triplicate): 193 RLU s-1; Inf. rel. EF-C ([3]; n-fold infection vs virus only, relative to that of EF-C, 1.3 µM peptide): 0.01; Zeta pot. / mV ([4]; 1 mg/mL in PBS pH 7.4 from 10 mg/mL DMSO stock, 1 d RT, 60 µL diluted in 600 µL 1 mM KCl, Zetasizer Nano ZS, Smoluchowski, mean of triplicate): -19.6 mV |
| KIKIQINMWA | 1101.2 | 3.042 | 1 |  | 1 | 1 | 1 | 1 | 0,69 | -0,16 | -0.1642 | -0.16 | -0.1642 | -0.1642 | -0.16 |  | -0.1642 |  | 16.43 | 14.7 | Zeta-Pot. [4, 16]: 14.7 |
| KIKIKIKIYYYY | 9918 | 3.996 | 0 |  | 0 | 0 | 0 | 0 | 1,38 | 0,14 | 0.1402 | 0.14 | 0.1402 | 0.1402 | 0.14 |  | 0.1402 |  | 14.07 | 13.3 | Log10 of Rel to EFC (Feb2021) ([3]; second listing, peptides with TEM 2cat 0): 0.14; Zeta-Pot. [4, 16]: 13.3 |

Source: PMC10447463, “Data-mining unveils structure–property–activity correlation of viral infectivity enhancing self-assembling peptides” (Nature Communications, 2023)
